In PMC9499525, “Tissue-restricted inhibition of mTOR using chemical genetics” (Proceedings of the National Academy of Sciences of the …, 2022):

Columns and labels:
[1] = system: Drosophila larvae (w1118 control and FKBP12 V55G transgenic); assay: Drosophila larval development (pupae 9 d after egg laying); type: in vivo
Procedure: All Drosophila stocks and crosses were maintained on standard cornmeal-molasses food at 25 °C using a 12-h light/dark cycle. To generate UAS-FKBP12 V55G-HA transgenic lines, human FKBP12 V55G-HA ORF was cloned into a pUAST-attB vector between EcoR-I and Xho-I restriction sites. This construct was then integrated into an attB site using phiC31 integrase with the assistance of Rainbow Transgenic Flies, Inc. The driver stocks da-GAL4 (ubiquitous), elav-GAL4 and nSyb-GAL4 (neuronal-specific), Mef2-GAL4 and mhc-GAL4 (musculature), and 2–286-GAL4 and phm-GAL4 (ring-gland-specific) were obtained from Bloomington Drosophila Stock Center. The crossing schemes used in this study are depicted in SI Appendix, Fig. S11. For rapamycin or Rapa*3Z related experiments, fly food was prepared freshly 24 h before each experiment.
Fly food containing ethanol vehicle was used as control. […] Three biological replicates were used for each experiment. Data were analyzed using Prism 9.0 (GraphPad).

[2] = system: MCF7 cells (with/without FKBP12 V55G-HA; mTOR F2108L); assay: Cell growth by CellTiter-Glo in MCF7 cells; type: cell-based, human; conditions: 72 h treatment
Procedure: All cell lines were maintained in DMEM (Gibco) supplemented with 10% heat-inactivated FBS (Axenia Biologix) at 37 °C in 5% CO2. Flp-In T-REx 293 cells were obtained from Thermo Fisher supplemented with 15 µg/mL blasticin and 100 µg/mL Zeocin. Flp-In T-REx 293 FKBP12 V55G cells were supplemented with 15 µg/mL blasticin and 150 µg/mL hygromycin B. FKBP12 V55G expression was induced with 1 µg/mL doxycycline 24 h prior to drug treatments. MCF7 cells were obtained from ATCC (American Type Culture Collection), and MCF7 mTOR F2108L cells were described previously ([30]). When indicated, cells were treated with drugs at 60–80% confluency at a final DMSO concentration of 0.1%. At the end of the treatment period, cells were placed on ice and washed once with PBS. […] Lysate concentration was determined by Bradford assay (Thermo Fisher) and adjusted to 2 mg/mL with additional RIPA buffer. […]
Cells were seeded into 96-well tissue-culture treated plates (Greiner) and were allowed to incubate for 24 h. […] Cell viability was assessed by CellTiter-Glo (Promega). […] Luminescence was measured on a Tecan Spark 20M. […]
Human FKBP12 coding sequence was cloned a pET-47b bacterial expression vector using Gibson assembly and a C-terminal HA-tag was added by QuickChange PCR. FKBP12 proteins were expressed as 8xHis fusions in E. coli BL21 (DE3) cells. […]

SMILES: CCO/N=C1/C[C@@H]([C@H](C)C[C@@H]2CC[C@@H](O)[C@H](OC)C2)OC(=O)[C@@H]2CCCCN2C(=O)C(=O)[C@]2(O)O[C@@H](CC[C@H]2C)C[C@H](OC)/C(C)=C/C=C/C=C/[C@@H](C)C[C@@H](C)C(=O)[C@H](OC)[C@H](O)/C(C)=C/[C@H]1C [Rapa*-3Z]
- Larval-to-pupal transition, FKBP12 V55G in ring gland (independent driver) ([1]; 2-286-GAL4, 100 µM, 9 d): nearly eliminated the larval-to-pupal transition
- Dose necessary for complete inhibition of larval development ([1]; FKBP12 V55G animals (ubiquitous da-GAL4), in food, 9 d after egg laying): 100 µM
- Larval-to-pupal transition, FKBP12 V55G in musculature and nervous system (independent drivers) ([1]; Mef2-GAL4 and elav-GAL4, 100 µM, 9 d): significant, but lesser, inhibition
- Effect on larval development, ubiquitous FKBP12 V55G expression ([1]; da-GAL4 > FKBP12 V55G, 100 µM): potently inhibited larval development
- Pupal formation, FKBP12 V55G in musculature and nervous system ([1]; mhc-GAL4 and nSyb-GAL4, 100 µM, 9 d after egg laying): similar, but less severe, inhibition of pupal formation
- Pupal formation, FKBP12 V55G in ring gland ([1]; phm-GAL4, 100 µM, 9 d after egg laying): failed to pupate
- Effect on larval development in control flies at 300 and 400 µM ([1]; w1118, 300 and 400 µM, 14 days after egg laying): no influence on larval development
- Effect on larval development in wild-type animals ([1]; wild-type (w1118) larvae, compound in food): no effect
- Cell growth inhibition, MCF7 cells with and without FKBP12 V55G ([2]; CellTiter-Glo): activity was restricted to the mutant FKBP12-expressing cells
- Cell growth, MCF7 mTOR F2108L cells ([2]; rapamycin resistance mutation): had no effect on the growth of these cells
